Test results: EP4483904A1, “POLYOXOMETALATES AS MEMBRANE CARRIERS” (Universität Wien, priority 2023, dated 2025)

Experiments:
[1] = U-tube transport experiments (CF transport through chloroform layer); conditions: CF 100 µM, POM 50 µM, heptaArg 10 µM
Procedure: The U-tubes were house-made, similar to those of Rebek and Matile consisting in a small beaker with a central glass barrier, separating the two aqueous layers, cis (sampling phase) and trans (receiving phase), but allowing an interface chloroform layer below the cis and trans phases. 3 mL CHCl3 are placed into the U-tube and 1 mL of the cis (combinations of carrier (POM), cargo (heptaArg) and CF in buffer) and trans (1 mL buffer) phases were added. The organic phase was stirred at 700 rpm at room temperature. Aliquots (25 µL) from the trans phase were taken at different times, 400 µL of buffer were added and measured by fluorescence.
In the U-tube experiments, the trans phase contained only buffer, and the cis phase is loaded with combinations of CF, carrier (POM) and cargo (heptaArg). Aliquots of the trans phase are taken and evaluated by fluorescence at different times. The trans phase is initially (t= 0) nonfluorescent, but the transport of CF from the cis phase through the chloroform barrier leads to a fluorescence signal for successful transport. […] In the ternary mixture, however, as expected, highly efficient transport is observed. This is consistent with the transport of a POM•heptaArg•CF complex through the organic phase. […]

heptaArg = assay: Isothermal titration calorimetry, POM into heptaArg; type: binding; conditions: 10 mM Mes, pH 5.5, 298.15 K
Procedure: (§1) All experiments were performed with a VP-ITC MicroCalorimeter from MicroCal, Int,. at atmospheric pressure and 298.15 K. Solutions were degassed and thermostatic prior the titration experiments in a ThermoVac accessory. A constant volume of POM ([PVW11]^4- or [SiMoW11]^4-) (10 µL per injection) was injected into the oligopeptide solution (heptaArg, protamine, polyArg or heptaLys) in 10 mM Mes, pH 5.5 to determine the apparent binding affinity of [PVW11]^4- and [SiMoW11]^4- with the oligopeptides. Dilution heats were determined by titration of the POM into buffer and subtracted from the reaction heat. The neat reaction heat was fitted with Origin 7.0 software by using the "one-set-of-sites" model to obtain the complex stability constant (Ka) and molar reaction enthalpy (ΔH°). The free energy (ΔG°) and entropy changes (ΔS°) were obtained according to the relation: ΔG° = - R TInKa = ΔH°-TΔS°.

CHO-K1 cells [2] = assay: Confocal imaging of FITC-Arg8 cellular uptake; type: cell-based; conditions: 4 µM FITCArg8, 5 and 10 µM carrier, 1 h, fixed cells, preliminary
Procedure: For confocal microscopy experiments, CHO-K1 cells were seeded into 12-well plates (Eppendorf) at a density of 1×10^5 cells/well (per 1 mL) and incubated for 24 h in Ham's F-12 containing 10 % (v/v) fetal bovine serum at 37 °C in a 5 % CO2. The cells were washed twice with PBS, and then incubated with POMs and FITC-Arg8 (4 µM) for 1 h at 37 °C, cells were washed twice with Hank's Balanced Salt solution containing 100 µg/mL heparin, twice again with PBS and fixed with 1 mL cold 4 % paraformaldehyde for 20 min. The cells were rewashed twice with PBS and subsequently the nuclei were stained with 2 µg/mL DAPI for 10 min at room temperature before imaging. Cells were imaged by LSM 980 confocal laser scanning microscope. Images were processed with Zen 3.2 software (Zeiss).

CHO-K1 cells [3] = assay: Cellular viability assay (MTT assay, resazurin readout); type: cell-based; conditions: 10 µM and below, after 24 h
Procedure: For MTT assays in presence of activators, CHO-K1 cells were incubated in Ham's F-12 medium containing 10 % fetal bovine serum and 1.0 % penicillin streptomycin at 37 °C in a 5 % CO2 for 24 hours. CHO-K1 cells were dispersed in a 96-well flat bottom tissue culture treated plates (Eppendorf) at density of 5×10^3 cells/well (per 100 µL) and incubated in Ham's F-12 containing 10 % (v/v) fetal bovine serum at 37 °C in a 5 % CO2 incubator for 12 h to allow cell adhesion. Then, cells were incubated with POM, B12Br12^2-, or PyBu (10 µM, 50 µM, 100 µM) for another 24 h. After this incubation time, 20 µL resazurin solution (0.15 mg/mL) was added to cells and incubated for another 3 h. Finally, the plates were read at λem = 590 nm (λex = 560 nm) using a JASCO fluorometer FP-8500.
The cell viability was evaluated by the following equation: Cells viability = (FIsample −FIblank)/(FIcontrol −FIblank) × 100% [formula]
Where, FIsample is the fluorescence intensity of cells incubated with different compounds, FIblank is the fluorescence intensity of medium, and FIcontrol is the fluorescence intensity of cells in absence of any compound.

[4] = system: oligopeptide (heptaArg, protamine, polyArg or heptaLys); assay: Isothermal titration calorimetry, POM-cargo interaction (summary statement); type: binding; conditions: ITC, POM and cargos
Procedure: as §1
To affect membrane transport, any carrier needs to display an affinity towards the cargo as well as towards the lipid bilayer. Accordingly, the interaction between [PVW11]^4- and [SiMoW11]^4- and the cargos was analyzed by isothermal titration calorimetry (ITC). […] The strong but reversible intermolecular interactions between the low-charged POMs and the cationic peptides established by ITC present an interesting finding. […]

Substance	carrier transport through hydrophobic bulk phase (U-tube) [1]	HeptaArg Ka/ 10^7 (heptaArg)	FITCArg8 uptake (confocal fluorescence microscopy) (CHO-K1 cells [2])	viability (CHO-K1 cells [3]) [%]	supramolecular interactions with the cargos (affinity, order of magnitude) [4]
K4[α-Si^IVMo^VIW^VI11O40]·24H2O [[SiMoW11]^4-]	can seize and transport a hydrophilic cargo even through a hydrophobic bulk phase	0.6 10^7 M-1	strong diffuse fluorescence	~80	~10^7 M^-1
K4[α-P^VV^VW^VI11O40]·4H2O [[PVW11]^4-]	can seize and transport a hydrophilic cargo even through a hydrophobic bulk phase	5.7 ± 0.7 10^7 M-1	strong diffuse fluorescence	~80	~10^7 M^-1
